From patent US4312866A, “Use of rifamycin SV and its related salts in the treatment of rheumatoid arthritis, and related formulations suited for the purpose” (priority 1979, dated 1982)
“Also recorded” adds a separate entry of the source. Structures can show the parent of a compound that is named as a salt.

Assays:
[1] = Stability of solutions and lyophilyzed salts; format: physicochemical; conditions: dry state
[2] = Comparison of synovial fluid rifamycin levels, sodium salt vs arginine salt (Table 2); format: in vivo, patients; conditions: equivalent to 500 mg rifamycin SV; for concentration at 5 min / concentration at 1 h / concentration at 2 h / concentration at 4 h / concentration at 8 h: human, synovial fluid, mean of eight determinations
Solubility of the salts = format: physicochemical
[3] = pH of aqueous solutions of the salts; format: physicochemical
clinical = conditions: in vivo
Procedure: (§1) The rifamycin levels, present in the biological fluids of treated patients, were assayed by high pressure liquid chromatography (HPLC), a method more reliable and reproducible than the ultraviolet or microbiological method.
(§2) The synovial fluid samples were directly injected into the chromatograph after precipitation of the proteins with acetonitrile on the other hand, the serum samples had to be previously extracted with ethyl acetate at an acid pH.
(§3) A Hewlett Packard chromatograph is used, model 104 B, fitted with a fixed wave length detector (254 nm); RP 18 (10 mc) column, 25-cm length, […].
(§4) The following eluent is used: (A) an 80:20 mixture of 0.01 M phosphate buffer at pH 7 and acetonitrile; (B) acetonitrile. The gradient shifts from the 10 percent of B to the 70 percent of B within 15 minutes; the flow is 1.6 ml/minute.
(§5) The temperature of the oven is 35° C.; that of the eluent A is 60 percent and the one of the eluent B 40 percent.
(§6) Rifamycin SV and its oxidized form, ie rifamycin S, are used as standard.
In order to establish the standard lines in the synovial fluid, 500 mg of each single compound are dissolved in one liter exactly of a 1:1 water-methanol mixture.
(§7) The two absorption lines are made up injecting 5 mcl, 10 mcl and 15 mcl of said solutions into the chromatograph.
Determination of rifamycin SV in the synovial fluid
This determination is directly carried out on the deproteinized synovial fluid. 200 mcl of sample are introduced into a centrifuge test tube, and added with 2 ml of acetonitrile.
The resulting solution is stirred, and allowed to decant; 20 mcl of supernatant fluid are thereafter injected into the chromatograph. The samples are analyzed immediately in order to prevent the oxidation of rifamycin SV into rifamycin S.
(§8) The data are expressed as mcg/ml.

[4] = test system: persistent effusions in one or both knees
Procedure: In a second clinical experimental course, 75 patients, presenting with persistent effusions in one or both knees were given 500 mg of rifamycin SV (in the form of a L-arginine salt) every seven days, still by intra-articular injection.

[5] = test system: cultures of synovial membrane fragments; test: Inhibiting activity on cultures of synovial membrane fragments; format: cell-based; conditions: needle biopsy, patients with suspected rheumatoid arthritis
Excerpt: (§9) Two of the 75 patients had to stop the treatment because of the above mentioned untoward side effect.

rheumatoid synovitis = test: Clinical trials (open and double-blind) in rheumatoid synovitis; format: in vivo, patients
Procedure: The effects of intra-articular injections of rifamycin SV solutions in rheumatoid synovitis were assessed in two clinical trials, one carried out according to an open technique and the other one according to a double-blind experimental design. A total of 35 patients was treated, with an intra-articular injection of 200-500 mg weekly, for a maximum of 10 weeks. The patients were followed up for three years. The following laboratory diagnostic tests were made weekly on the synovial fluids: white blood cell differential count, RA test, Waaler-Rose test, latex test, immunoglobulins, T and B lymphocytes, C3 and C4 levels, glucose, acid phosphatase.
Bioptic examinations were carried out both before and after various months (1-18) after the start of the treatment.

rheumatoid arthritis = test: Intra-articular injections in rheumatoid arthritis (general statement); format: in vivo; conditions: rheumatoid arthritis patients
rabbit's spinal sac = test: Local tolerability after injection into the rabbit's spinal sac; format: in vivo; conditions: 60-mg injection once daily for three consecutive days, versus commercial solutions of rifamycin SV
[6] = Rifamycin levels in monoarthritic guinea-pig after intra-articular administration; format: in vivo; conditions: monoarthritic guinea-pig (gamma-globulin arthritis)
Excerpt: The observation that in the monoarthritic guinea-pig (gamma-globulin arthritis) rifamycin arginine salt levels, 10 times higher than in the case of rifamycin sodium salt, can be observed following an intra-articular administration of either rifamycin sodium salt or arginine salt, proves in full agreement with the above mentioned datum.

[7] = test system: joint sites other than the knee (wrist, hand's metacarpophalangeal and interphalangeal joints, tibiotarsal joints, etc); test: Infiltrations into joint sites other than the knee; format: in vivo, patients; conditions: approximately 300 joints
Excerpt: as §9

[8] = in vivo
Procedure: as §1, §2, §3, §4, §5, §6, §7
The previous solutions are ten-fold diluted in the case of sera standard lines; the above mentioned operations are thereafter repeated.
Determination of Rifamycin in the Serum […]
as §8

[9] = synovial fluid, end of the treatment

Compound: CO[C@H]1/C=C/O[C@@]2(C)Oc3c(C)c(O)c4c(O)c(cc(O)c4c3C2=O)NC(=O)/C(C)=C\C=C\[C@H](C)[C@H](O)[C@@H](C)[C@@H](O)[C@@H](C)[C@H](OC(C)=O)[C@@H]1C [rifamycin SV sodium salt, reference compound]
- preservation of lyophilyzed salt [1]: can be preserved for years at room temperature
- concentration at 5 min [2]: 6700 ± 200 µg/mL
- concentration at 1 h [2]: 1530 ± 490 µg/mL
- concentration at 2 h [2]: 485 ± 180 µg/mL
- concentration at 4 h [2]: 439 ± 180 µg/mL
- concentration at 8 h [2]: 140 ± 67 µg/mL
- solubility in water (Solubility of the salts): scarcely soluble in water

Compound: COC1C=COC2(C)Oc3c(C)c(O)c4c(O)c(cc(O)c4c3C2=O)NC(=O)C(C)=CC=CC(C)C(O)C(C)C(O)C(C)C(OC(C)=O)C1C (centres unmarked) [histidine salt, rifamycin SV salt with histidine]
- pH of 20 percent aqueous solutions ([3]; 20 percent aqueous solutions): 6.4-6.7
- solubility in acetone (Solubility of the salts): good
- solubility in benzene (Solubility of the salts; benzene): practically nil
- solubility in ethanol (Solubility of the salts; ethanol): good
- solubility in ether (Solubility of the salts; ether): practically nil
- solubility in ethyl acetate (Solubility of the salts): practically nil
- solubility in isopropanol (Solubility of the salts; isopropanol): practically nil
- solubility in methanol (Solubility of the salts): high
- solubility in water (Solubility of the salts): high

Compound: COC1C=COC2(C)Oc3c(C)c(O)c4c(O)c(cc(O)c4c3C2=O)NC(=O)C(C)=CC=CC(C)C(O)C(C)C(O)C(C)C(OC(C)=O)C1C (centres unmarked) [rifamycin SV]
- diffusion of rifamycin SV injected into the joint (clinical): scarce diffusion
- rifamycin species present in the synovial fluid (clinical): Only rifamycin SV is present in the synovial fluid
- initial local pain ([4]; human, in vivo): majority of the patients
- patients who had to stop the treatment because of side effect ([4]; human, in vivo): Two
- patients with local retarded painful reaction ([4]; human, in vivo): 28 patients
- inhibiting activity on cultures of synovial membrane fragments [5]: inhibiting activity of rifamycin SV was demonstrated
- patients with reappearance of exudate (rheumatoid synovitis; 35 patients, followed up for three years): two
- disappearance of exudate (rheumatoid synovitis; 200-500 mg weekly intra-articular, maximum 10 weeks): completely disappeared after the third and within the tenth instillation
- histological variations of the knees (rheumatoid synovitis; biopsies before and 1-18 months after start of treatment): reduction of synovial cell infiltrates; also recorded: increase of newly-formed connective tissue; also recorded: surrounding areas with a residual hyperplastic synovia; also recorded: depositions of a new partially organized fibrin
- immunological parameters (rheumatoid synovitis; end of the treatment): No variations
- RA cells (rheumatoid synovitis; [9]): significant drop
- polymorphocyte percentage (rheumatoid synovitis; [9]): significant drop
- total leukocytes (rheumatoid synovitis; [9]): significant drop
- resolution of the pathologic condition (rheumatoid arthritis): rapid resolution of the pathologic condition as well as to the patient's complete cure

Compound: COC1C=COC2(C)Oc3c(C)c(O)c4c(O)c(cc(O)c4c3C2=O)NC(=O)C(C)=CC=CC(C)C(O)C(C)C(O)C(C)C(OC(C)=O)C1C [L-arginine salt of rifamycin SV, rifamycin SV salt with arginine]
- concentration at 0.25 h (clinical; human): 4930 ± 550 µg/mL
- local tolerability (rabbit's spinal sac): optimal and definitely better than that observed in the case of commercial solutions
- patients with complete subsidence of effusions and marked clinical improvement ([4]; 500 mg rifamycin SV every seven days intra-articular, of 75 patients): seventy-two
- patients with effusional relapse ([4]; 1-6 months after the start of the treatment): 3 patients
- patients not responding to 12 infiltrations ([4]; 12 infiltrations): one
- synovial fluid leukocytes ([4]; P<0.001): significant decrease
- C3 and C4 complemental fractions in synovial fluid ([4]; P<0.005): increase
- relation of number of infiltrations with activity of the local synovitis ([4]; P<0.05): strictly related
- patients requiring 1-3 infiltrations to induce effusion subsidence ([4]; out of 72): 12 patients
- patients requiring 4-6 infiltrations to induce effusion subsidence ([4]; out of 72): 33 patients
- patients requiring 7-12 infiltrations to induce effusion subsidence ([4]; out of 72): 27 patients
- synovial fluid levels compared with sodium salt ([2]; intra-articular): marked superiority
- concentration at 5 min [2]: 7160 ± 2100 µg/mL
- concentration at 1 h [2]: 3850 ± 800 µg/mL
- concentration at 2 h [2]: 1730 ± 1000 µg/mL
- concentration at 4 h [2]: 750 ± 300 µg/mL
- concentration at 8 h [2]: 173 ± 100 µg/mL
- rifamycin arginine salt levels vs rifamycin sodium salt [6]: 10 times higher
- pH of 10 percent aqueous solution ([3]; 10 percent aqueous solution): 6.7
- solubility in acetone (Solubility of the salts; listed as arginine salt): highly soluble
- solubility in chloroform (Solubility of the salts; chloroform): sparingly soluble
- solubility in ethyl acetate (Solubility of the salts; listed as arginine salt): sparingly soluble
- solubility in methanol (Solubility of the salts; listed as arginine salt): highly soluble
- solubility in water (Solubility of the salts; listed as arginine salt): highly soluble
- solubility in water (Solubility of the salts; listed as arginine salt of rifamycin SV): optimal water solubility properties
- analgesic and anti-inflammatory activity [7]: potent analgesic and anti-inflammatory activity
- joint function [7]: overall improvement of joint function
- morning stiffness [7]: marked reduction, and quite often in a complete subsidence

Compound: COC1C=COC2(C)Oc3c(C)c(O)c4c(c3C2=O)C(=O)C=C(NC(=O)C(C)=CC=CC(C)C(O)C(C)C(O)C(C)C(OC(C)=O)C1C)C4=O (centres unmarked) [rifamycin S]
- rifamycin species present in the serum [8]: serum also contains rifamycin S
